Several values for one entry are separate records, joined by “and”; a condition that tells them apart may be missing. Equal entries are not always repeated. Where two headings read alike, the source gives them in different places.
Key:
Format in all cases: cell-based
[1] = test system: cancer cell lines; test: In vitro cancer cell assays (antiproliferation, cell line not given); conditions: for loss in antiproliferation activity on replacing the aldehyde group: SAR statement in words; for antiproliferation activity in the in vitro cancer cell assays: result in words
Procedure: (§1) All cell lines were cultured at 37 °C with 5% CO2 in a humidified incubator. HeLa cells were grown in MEM (Gibco) supplemented with 10% fetal bovine serum (FBS, Hyclone) and 1% penicillin/streptomycin (Gibco). MIA PaCa-2, MDA-MB-231, A549, MCF-7, A375 and BEAS-2B cells were grown in DMEM (Gibco) supplemented with 10% FBS and 1% penicillin/streptomycin. CT26, and HCT116 cells were grown in RPMI-1640 supplemented with 10% FBS and 1% penicillin/streptomycin. All cell lines were purchased from the National Collection of Authenticated Cell Cultures (China).
(§2) The antiproliferative activities of the prepared compounds against tested cell lines were evaluated using a standard (MTT)-based colorimetric assay. Cells were plated at a density of 3000 cells/well in 96-well plates and allowed to adhere overnight. Then cells were treated with varying concentrations of synthesized compounds for 72 h. At the end of treatment, 20 μL of thiazolyl blue tetrazolium bromide (MTT) solution (5 mg/mL) was added to each well. Cells were incubated for an additional 4 h at 37 °C and then the medium was removed and replaced with 200 μL of DMSO. The absorbance (OD490) was read on a microplate reader (SpectraMax i3x, Molecular Devices, US). In all experiments, three replicate wells were used for each drug concentration. Each assay was performed at least three times. The IC50 values were calculated by GraphPad Prism 9, which were the mean values derived from three independent experiments.

[2] = test system: MDA-MB-231; test: MTT cell viability assay, MDA-MB-231
Procedure: as §1, §2

[3] = test system: CT26; test: MTT cell viability assay, CT26
Procedure: as §1, §2

[4] = test system: A549; test: MTT cell viability assay, A549
Procedure: as §1, §2

[5] = test system: MIA PaCa-2; test: MTT cell viability assay, MIA PaCa-2
Procedure: as §1, §2

[6] = test system: HCT 116; test: MTT cell viability assay, HCT 116
Procedure: as §1, §2

[7] = test system: Hela; test: MTT cell viability assay, Hela
Procedure: as §1, §2

[8] = test system: A375; test: MTT cell viability assay, A375
Procedure: as §1, §2

[9] = test system: lung epithelial BEAS-2B cells; test: MTT cytotoxicity towards normal cells, BEAS-2B
Procedure: as §1, §2

[10] = test system: MCF-7; test: MTT cell viability assay, MCF-7
Procedure: as §1, §2

[11] = test system: MDA-MB-231 cells; test: Cell death manner assay (MTT, co-incubation with cell death inhibitors); conditions: Fer-1 / NAC experiment; 15ai 10 μM, Fer-1 10 μM, NAC 5 mM, 72 h; single replicates
Procedure: [The source words this procedure for another cell line and reports this cell line under the same test.] To investigate the mechanism of 15ai in cancer cell proliferation inhibition, the manners of cell death were analyzed. The cell apoptosis inhibitor Z-VAD-FMK (Z-VAD), cell necrosis inhibitor Necrostatin-1 (Necro-1), ferroptosis inhibitor Ferrostatin-1 (Fer-1), and ROS inhibitor N-acetylcysteine (NAC) were purchased and stored at −20 °C. A375 cells were seeded with a density of 5000 cells/100 µL/well into 96 well plates. After 12 h, 15ai was added at different concentrations. Following that 10 µM Z-VAD, 10 µM Nerco-1, 10 µM Fer-1, and 5 mM NAC were added and co-incubated with 15ai, respectively, for 72 h. Then, 20 µL MTT solution (5 mg/mL) was added and incubated at 37 °C for an additional 4 h. Then, the supernatant was discarded, and 200 μL DMSO was added to dissolve the precipitate. After 15 min, the absorbance (OD490) was read on a microplate reader (SpectraMax i3x, Austria). In all experiments, three replicate wells were used for each drug concentration. Each assay was performed at least three times.

[12] = MTT cytotoxicity towards normal cells, BEAS-2B; conditions: human; for IC50 at 72 h: BEAS-2B lung epithelial cells (normal cells), source data sheet, single values of three experiments; for CC50 at 72 h: BEAS-2B lung epithelial cells, MTT, cytotoxicity towards normal cells, mean of at least three independent experiments
Procedure: as §1, §2

[13] = source data sheet, single values of three experiments, read-out: MTT IC50 MDA-MB-231
[14] = source data sheet, single values of three experiments, read-out: MTT IC50 CT-26
[15] = source data sheet, single values of three experiments, read-out: MTT IC50 A549
[16] = source data sheet, single values of three experiments, read-out: MTT IC50 MIA PaCa-2
[17] = source data sheet, single values of three experiments, read-out: MTT IC50 HCT-116
[18] = source data sheet, single values of three experiments, read-out: MTT IC50 Hela
[19] = source data sheet, single values of three experiments, read-out: MTT IC50 A375
[20] = source data sheet, single values of three experiments, read-out: MTT IC50 MCF-7
[21] = Homo sapiens, MDA-MB-231, 72 h, MTT, 72 h, mean of at least three independent experiments, read-out: IC50 MDA-MB-231
[22] = Homo sapiens, MDA-MB-231, source data sheet, single values of three experiments, read-out: MTT IC50 MDA-MB-231
[23] = Mus musculus, CT26, 72 h, MTT, 72 h, mean of at least three independent experiments, read-out: IC50 CT26
[24] = Mus musculus, CT26, source data sheet, single values of three experiments, read-out: MTT IC50 CT-26
[25] = Homo sapiens, A549, 72 h, MTT, 72 h, mean of at least three independent experiments, read-out: IC50 A549
[26] = Homo sapiens, A549, source data sheet, single values of three experiments, read-out: MTT IC50 A549
[27] = Homo sapiens, MIA PaCa-2, 72 h, MTT, 72 h, mean of at least three independent experiments, read-out: IC50 MIA PaCa-2
[28] = Homo sapiens, MIA PaCa-2, source data sheet, single values of three experiments, read-out: MTT IC50 MIA PaCa-2
[29] = Homo sapiens, HCT-116, 72 h, MTT, 72 h, mean of at least three independent experiments, read-out: IC50 HCT 116
[30] = Homo sapiens, HCT-116, source data sheet, single values of three experiments, read-out: MTT IC50 HCT-116
[31] = Homo sapiens, HeLa, 72 h, MTT, 72 h, mean of at least three independent experiments, read-out: IC50 Hela
[32] = Homo sapiens, HeLa, source data sheet, single values of three experiments, read-out: MTT IC50 Hela
[33] = Homo sapiens, A-375, 72 h, MTT, 72 h, mean of at least three independent experiments, read-out: IC50 A375
[34] = Homo sapiens, A-375, source data sheet, single values of three experiments, read-out: MTT IC50 A375
[35] = Homo sapiens, MCF7, 72 h, MTT, 72 h, mean of at least three independent experiments, read-out: IC50 MCF-7
[36] = Homo sapiens, MCF7, source data sheet, single values of three experiments, read-out: MTT IC50 MCF-7

C=C=C1CN2[C@H]3C[C@H]1[C@H](C=O)[C@@H]2Cc1c3n(S(=O)(=O)c2ccc(C(F)(F)F)cc2)c2ccccc12 [Compound 15am]
IC50 ([1]; cell line not given): > 50 µM

C=C=C1CN2[C@H]3C[C@H]1[C@H](C(=O)O)[C@@H]2Cc1c3n(S(=O)(=O)c2ccc(C)cc2)c2ccccc12 [Compound 15an]
loss in antiproliferation activity on replacing the aldehyde group [1]: complete

C=C=C1CN2[C@H]3C[C@H]1[C@H](CO)[C@@H]2Cc1c3n(S(=O)(=O)c2ccc(C)cc2)c2ccccc12 [Compound 15ao]
loss in antiproliferation activity on replacing the aldehyde group [1]: complete

CC=C1CN2C3CC1C(C=O)C2Cc1c3n(S(=O)(=O)c2ccc(C)cc2)c2ccccc12 (stereo not shown) [Compound 15ar]
IC50 ([2]; MTT, 72 h, mean of at least three independent experiments, read-out: IC50 MDA-MB-231): 4.63 µM | IC50 [2, 13]: 5.08 µM and 4.02 µM and 4.8 µM | IC50 ([3]; MTT, 72 h, mean of at least three independent experiments, read-out: IC50 CT26): 9.39 µM | IC50 [3, 14]: 10.9 µM and 8.18 µM and 9.11 µM | IC50 ([4]; MTT, 72 h, mean of at least three independent experiments, read-out: IC50 A549): 14.1 µM | IC50 [4, 15]: 16.5 µM and 14 µM and 11.7 µM | IC50 ([5]; MTT, 72 h, mean of at least three independent experiments, read-out: IC50 MIA PaCa-2): 13.3 µM | IC50 [5, 16]: 14.9 µM and 13 µM and 12 µM | IC50 ([6]; MTT, 72 h, mean of at least three independent experiments, read-out: IC50 HCT 116): 6.96 µM | IC50 [6, 17]: 8.05 µM and 5.83 µM and 7.01 µM | IC50 ([7]; MTT, 72 h, mean of at least three independent experiments, read-out: IC50 Hela): 6.16 µM | IC50 [7, 18]: 7.46 µM and 6.04 µM and 4.98 µM | IC50 ([8]; MTT, 72 h, mean of at least three independent experiments, read-out: IC50 A375): 4.54 µM | IC50 [8, 19]: 5.71 µM and 3.87 µM and 4.03 µM | CC50 ([9]; MTT, 72 h, cytotoxicity towards normal cells, mean of at least three independent experiments): > 100 µM | IC50 ([9]; source data sheet, single values of three experiments): > 100 µM | IC50 ([10]; MTT, 72 h, mean of at least three independent experiments, read-out: IC50 MCF-7): 17.8 µM | IC50 [10, 20]: 19.9 µM and 15.7 µM and 17.7 µM

CC(=O)N[C@@H](CS)C(=O)O [NAC, N-acetylcysteine, reference compound]
Percentage of viability [11]: 108.212% and 96.8182% and 102.046%

CC=C1CN2C3CC1C(C=O)C2Cc1c3n(C)c2ccccc12 (stereo not shown) [Na-methylvellosimine (5), Na-methylvellosimine]
IC50 [2, 21]: 20.7 µM | IC50 [2, 22]: 20.4 µM | IC50 [2, 13]: 22.8 µM and 18.8 µM | IC50 [3, 23]: 21.4 µM | IC50 [3, 24]: 19.6 µM | IC50 [3, 14]: 20.7 µM and 23.8 µM | IC50 [4, 25]: 20.9 µM | IC50 [4, 26]: 23.1 µM | IC50 [4, 15]: 19 µM and 20.4 µM | IC50 [5, 27]: 26.7 µM | IC50 [5, 28]: 29.2 µM | IC50 [5, 16]: 23.5 µM and 27.3 µM | IC50 [6, 29]: 23.6 µM | IC50 [6, 30]: 25.2 µM | IC50 [6, 17]: 22.5 µM and 23 µM | IC50 [7, 31]: 22.3 µM | IC50 [7, 32]: 24.5 µM | IC50 [7, 18]: 21.9 µM and 20.4 µM | IC50 [8, 33]: 27.6 µM | IC50 [8, 34]: 29.2 µM | IC50 [8, 19]: 25.9 µM and 27.8 µM | antiproliferation activity in the in vitro cancer cell assays [1]: moderate antiproliferation activity | IC50 at 72 h [12]: > 100 µM | CC50 at 72 h [12]: > 100 µM | IC50 [10, 35]: 41.8 µM | IC50 [10, 36]: 44.7 µM | IC50 [10, 20]: 40.8 µM and 39.9 µM

CC=C1CN2C3CC1C(C=O)C2Cc1c3[nH]c2ccccc12 (stereo not shown) [vellosimine (4), vellosimine]
IC50 [2, 21]: 21.2 µM | IC50 [2, 22]: 23 µM | IC50 [2, 13]: 18.2 µM and 22.2 µM | IC50 [3, 23]: 20.2 µM | IC50 [3, 24]: 18.9 µM | IC50 [3, 14]: 23.2 µM and 18.5 µM | IC50 [4, 25]: 23.2 µM | IC50 [4, 26]: 22.2 µM | IC50 [4, 15]: 26.1 µM and 21.4 µM | IC50 [5, 27]: 32.6 µM | IC50 [5, 28]: 35.9 µM | IC50 [5, 16]: 29.6 µM and 32.2 µM | IC50 [6, 29]: 27.5 µM | IC50 [6, 30]: 29.6 µM | IC50 [6, 17]: 25.2 µM and 27.8 µM | IC50 [7, 31]: 24.1 µM | IC50 [7, 32]: 27.5 µM | IC50 [7, 18]: 22.6 µM and 22.2 µM | IC50 [8, 33]: 28.6 µM | IC50 [8, 34]: 32.1 µM | IC50 [8, 19]: 26.2 µM and 27.5 µM | antiproliferation activity in the in vitro cancer cell assays [1]: moderate antiproliferation activity | IC50 at 72 h [12]: > 100 µM | CC50 at 72 h [12]: > 100 µM | IC50 [10, 35]: 39.2 µM | IC50 [10, 36]: 38.9 µM | IC50 [10, 20]: 42.7 µM and 36 µM
